Results as given in PMC12280126, “Potent β-lactam-based tyrosyl-DNA phosphodiesterase 1 inhibitors identified by a virtual screen” (Scientific Reports, 2025).
“And” between values parts separate entries of the source, which are not always exact repeats. Identical values can stand only once. Counter-ions that a name gives are not always drawn. Like-named read-outs stand apart in the source and are kept apart here.

Molecular target: T1, recombinant TDP1 (Homo sapiens, UniProt Q9NUW8)
T1 construct: incubated with 40 pM full-length recombinant TDP1 or TDP1 (148–608)
T1 sequence (Q9NUW8 whole entry): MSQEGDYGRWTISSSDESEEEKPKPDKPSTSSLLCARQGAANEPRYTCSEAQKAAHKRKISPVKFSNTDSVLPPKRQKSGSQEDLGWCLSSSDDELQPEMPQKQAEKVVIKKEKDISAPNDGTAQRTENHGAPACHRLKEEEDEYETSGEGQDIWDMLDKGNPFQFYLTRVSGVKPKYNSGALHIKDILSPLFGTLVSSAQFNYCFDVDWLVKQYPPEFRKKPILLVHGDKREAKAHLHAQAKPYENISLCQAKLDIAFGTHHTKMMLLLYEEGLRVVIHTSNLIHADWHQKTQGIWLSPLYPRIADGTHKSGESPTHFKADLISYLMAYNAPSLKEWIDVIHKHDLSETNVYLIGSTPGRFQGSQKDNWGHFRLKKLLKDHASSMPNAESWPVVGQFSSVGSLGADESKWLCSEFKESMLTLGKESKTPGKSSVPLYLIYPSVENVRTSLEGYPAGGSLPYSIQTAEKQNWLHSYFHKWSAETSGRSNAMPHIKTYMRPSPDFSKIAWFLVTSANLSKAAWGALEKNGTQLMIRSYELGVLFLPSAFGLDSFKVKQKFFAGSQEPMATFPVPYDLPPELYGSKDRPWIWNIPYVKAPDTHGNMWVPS
Experiment: in vitro gel-based fluorescence TDP1 catalytic assay
Type: biochemical
Experimental: We subjected select virtual screen hits to evaluation of TDP1 inhibitory potencies using in vitro gel-based fluorescence TDP1 catalytic assays (Fig. 2). […] To further explore this class of compounds, we purchased from TargetMol a library of approximately 90 β-lactams as 10 mM solutions in DMSO. […] We examined TDP1 inhibitory potencies of the compounds using the in vitro gel-based fluorescence assays as previously described[21]–[24]. Briefly, a 5’-Cy5-labeled DNA substrate (N14Y, 5’-Cy5-[…]-pY-3’, 1 nM) was incubated in TDP1 reaction buffer with recombinant TDP1 or truncated TDP1(148–608) (40 pM) in the absence or presence of inhibitors for 15 min at room temperature. […] The TDP1 inhibition IC50 values were calculated based on gel images of the cleavage product (N14P, 5’-Cy5-[…]-p-3’) (Fig. 3A and Table S2).
The inhibition of TDP1 and TDP2 were conducted according to gel-based methods as previously described[21]–[24],[45]. Briefly, 1 nM of the DNA substrate (N14Y, 5´Cy5-[…]-pY-3´) was incubated with 40 pM full-length recombinant TDP1 or TDP1 (148–608) in the absence or presence of inhibitors for 15 min at room temperature in TDP1 reaction buffer (50 mM Tris-HCl, pH 7.5, 80 mM KCl, 2 mM EDTA, 1 mM DTT, 40 µg/mL BSA and 0.01% Tween 20). The inhibition of TDP2 was also conducted by using similar conditions. […] The reactions of both TDP1 and TDP2 were stopped by adding an equal volume of gel loading buffer (99.5% (v/v) formamide, 5 mM EDTA). The samples were then subjected to a 20% denaturing PAGE gel followed by gel scanning using a Typhoon FLA 9500 scanner (GE Healthcare). The IC50 values of the TDP1 inhibitors were calculated by comparing the percentage of the cleavage product (N14P, 5´Cy5-[…]-p-3´) produced to that in the DMSO control. The IC50 values of the TDP2 inhibitors were calculated by comparing the percentage of the cleavage product (PN18, 5’-p-[…]-Cy5-3’) produced to that in the DMSO control.

[1] = 40 pM recombinant TDP1, 1 nM N14Y DNA substrate, 15 min, room temperature, read-out: TDP1 IC50

SMILES | IC50 [1] | other results
CO/N=C(\C(=O)N[C@@H]1C(=O)N2C(C(=O)O)=C(COC(C)=O)CS[C@H]12)c1csc(N)n1 [LA1, Cefotaxime sodium] | > 1 mM | –
Cc1nnc(SCC2=C(C(=O)O)N3C(=O)[C@@H](NC(=O)Cn4cnnn4)[C@H]3SC2)s1 [LA3, Cefazolin] | > 1 mM | –
CC(=O)OCC1=C(C(=O)O)N2C(=O)[C@@H](NC(=O)CSC(=NC(C)C)NC(C)C)[C@H]2SC1 [LA4, Cefathiamidine] | > 1 mM | –
CO/N=C(\C(=O)N[C@@H]1C(=O)N2C(C(=O)O)=C(CSc3nc(C)c(CC(=O)O)s3)CS[C@H]12)c1csc(N)n1 [LA5, Cefodizime Sodium] | > 1 mM | –
CC1(C)S[C@@H]2[C@H](NC(=O)C(c3ccccc3)S(=O)(=O)O)C(=O)N2[C@H]1C(=O)O (stereo partly shown) [LA6, Sulbenicillin Sodium] | > 1 mM | –
CC(=O)OCC1=C(C(=O)O)N2C(=O)[C@@H](NC(=O)CSc3ccncc3)[C@H]2SC1 [LA7, Cephapirin Benzathine] | – | IC50 (read-out: TDP1 IC50): > 1 mM
Cc1nnc(SCC2=C(C(=O)O)N3C(=O)[C@@H](NC(=O)Cn4cc(Cl)c(=O)c(Cl)c4)[C@H]3SC2)s1 [LA8, Cefazedone] | > 1 mM | –
CCO/N=C(\C(=O)N[C@@H]1C(=O)N2C(C(=O)[O-])=C(Sc3nc(-c4cc[n+](C)cc4)cs3)CS[C@H]12)c1nsc(NP(=O)(O)O)n1 [LA11, Ceftaroline fosamil] | > 1 mM | –
CO/N=C(\C(=O)N[C@@H]1C(=O)N2C(C(=O)O)=C(C[N+]3(C)CCCC3)CS[C@H]12)c1csc(N)n1 [LB1, Cefepime Dihydrochloride Monohydrate] | > 1 mM | –
CON=C(C(=O)NC1C(=O)N2C(C(=O)OCOC(=O)C(C)(C)C)=C(C)CSC12)c1csc(N)n1 (stereo not shown) [LB3, Cefetamet pivoxil hydrochloride] | – | IC50 (TDP1 IC50, 40 pM recombinant TDP1, 1 nM N14Y DNA substrate, 15 min, room temperature): > 1 mM
CO[C@@]1(NC(=O)C2SC(=C(C(N)=O)C(=O)O)S2)C(=O)N2C(C(=O)O)=C(CSc3nnnn3C)CS[C@@H]21 (stereo partly shown) [LB4, Cefotetan] | 0.379 mM | –
CC1(C)S[C@@H]2[C@H](NC(=O)[C@H](C(=O)O)c3ccsc3)C(=O)N2[C@H]1C(=O)O [LB5, Ticarcillin sodium] | > 1 mM | –
CO/N=C(\C(=O)N[C@@H]1C(=O)N2C(C(=O)O)=C(Cn3ccc(=N)n3CCO)CS[C@H]12)c1csc(N)n1 [LB7, Cefoselis Sulfate] | > 1 mM | –
CCN1CCN(C(=O)N[C@@H](C(=O)N[C@@H]2C(=O)N3C(C(=O)O)=C(CSc4nnnn4C)CS[C@H]23)c2ccc(O)cc2)C(=O)C1=O [LB8, Cefoperazone] | > 1 mM | –
C=CC1=C(C(=O)O)N2C(=O)[C@@H](NC(=O)/C(=N\O)c3csc(N)n3)[C@H]2SC1 [LB10, Cefdinir] | > 1 mM | –
CC1=C(C(=O)O)N2C(=O)C(N)C2SC1 (stereo not shown) [LB12, Cefalexine EP IMpurity B] | > 1 mM | –
NC(=O)c1cc[n+](CC2=C(C(=O)O)N3C(=O)[C@@H](NC(=O)[C@@H](c4ccccc4)S(=O)(=O)[O-])[C@H]3SC2)cc1 [LC1, Cefsulodine sodium] | > 1 mM | –
CO[C@@]1(NC(=O)C(C(=O)O)c2ccc(O)cc2)C(=O)N2C(C(=O)O)=C(CSc3nnnn3C)CO[C@@H]21 (stereo partly shown) [LC4, Latamoxef sodium] | 0.179 mM and 0.18 mM | –
C[C@@H](O)[C@H]1C(=O)N2C(C(=O)O)=C([C@H]3CCCO3)S[C@H]12 [LC7, Faropenem sodium] | > 1 mM | –
CC(=O)OCC1=C(C(=O)O)N2C(=O)[C@@H](NC(=O)CSc3ccncc3)[C@H]2SC1 [LC8, Cephapirin Sodium] | 0.496 mM | –
NCc1ccccc1CC(=O)N[C@@H]1C(=O)N2C(C(=O)O)=C(CSc3nnnn3CC(=O)O)CS[C@H]12 [LC10, Ceforanide] | 0.378 mM | –
COCC1=C(C(=O)OC(C)OC(=O)OC(C)C)N2C(=O)[C@@H](NC(=O)/C(=N\OC)c3csc(N)n3)[C@H]2SC1 (stereo partly shown) [LD2, Cefpodoxime proxetil] | > 1 mM | –
CO/N=C(\C(=O)N[C@@H]1C(=O)N2C(C(=O)[O-])=C(C[n+]3cccc4c3CCC4)CS[C@H]12)c1csc(N)n1 [LD3, Cefpirome sulfate] | > 1 mM | –
Cn1nnnc1SCC1=C(C(=O)O)N2C(=O)[C@@H](NC(=O)[C@H](OC=O)c3ccccc3)[C@H]2SC1 [LD4, Cefamandole nafate] | > 1 mM | –
C[C@@H](O)[C@H]1C(=O)N2C(C(=O)O)=C(S[C@@H]3CN[C@H](C(=O)Nc4cccc(C(=O)O)c4)C3)[C@H](C)[C@H]12 [LD5, Ertapenem sodium] | > 1 mM | –

SMILES | IC50 [1] | other results
CC/C=C(\C(=O)N[C@@H]1C(=O)N2C(C(=O)OCOC(=O)C(C)(C)C)=C(COC(N)=O)CS[C@H]12)c1csc(N)n1 [LD6, Cefcapene Pivoxil Hydrochloride] | > 1 mM | –
Nc1nc(/C(=C/CC(=O)O)C(=O)N[C@@H]2C(=O)N3C(C(=O)O)=CCS[C@H]23)cs1 [LD10, Ceftibuten dihydrate] | > 1 mM | –
CO/N=C(\C(=O)N[C@@H]1C(=O)N2C(C(=O)[O-])=C(C[n+]3cccc4c3CCCC4)CS[C@H]12)c1csc(N)n1 [LD11, Cefquinome sulfate] | > 1 mM | –
CC1=C(C(=O)O)N2C(=O)[C@@H](NC(=O)[C@H](N)c3ccc(O)cc3)[C@H]2SC1 [LE1, Cefadroxil] | > 1 mM | –
CO[C@@]1(NC(=O)CSC[C@@H](N)C(=O)O)C(=O)N2C(C(=O)O)=C(CSc3nnnn3C)CS[C@@H]21 [LE3, Cefminox Sodium] | – | IC50 (read-out: TDP1 IC50): > 1 mM
CC1(C)S[C@@H]2[C@H](NC(=O)[C@H](N)c3ccccc3)C(=O)N2[C@H]1C(=O)OCOC(=O)[C@@H]1N2C(=O)C[C@H]2S(=O)(=O)C1(C)C [LE4, Sultamicillin Tosylate] | > 1 mM | –
C[C@@H](O)[C@H]1C(=O)N2C(C(=O)O)=C(S[C@@H]3CN[C@H](CNS(N)(=O)=O)C3)[C@H](C)[C@H]12 [LE5, Doripenem] | 0.148 mM | –
CC1(C)S[C@@H]2[C@H](/N=C/N3CCCCCC3)C(=O)N2[C@H]1C(=O)O [LE6, Mecillinam] | > 1 mM | –
CC1(C)[C@H](C(=O)O)N2C(=O)C[C@H]2S1(=O)=O [LE7, Sulbactam] | – | IC50 (read-out: TDP1 IC50): 0.595 mM
CN(C)CCn1nnnc1SCC1=C(C(=O)O)N2C(=O)[C@@H](NC(=O)Cc3csc(N)n3)[C@H]2SC1 [LE8, Cefotiam hydrochloride] | > 1 mM | –
C[C@@H](O)[C@H]1C(=O)N2C(C(=O)O)=C(S[C@@H]3CN[C@H](CNS(N)(=O)=O)C3)[C@H](C)[C@H]12 [LE10, Doripenem Hydrate] | > 1 mM | –
N[C@@H](C(=O)N[C@@H]1C(=O)N2C(C(=O)O)=C(Cl)CS[C@H]12)c1ccccc1 [LE11, Cefaclor monohydrate] | > 1 mM | –
C[C@@H](O)[C@H]1C(=O)N2C(C(=O)O)=C(S[C@@H]3CN[C@H](C(=O)N(C)C)C3)[C@H](C)[C@H]12 [LF1, Meropenem] | > 1 mM | –
C[n+]1ccn(C[C@@]2(C)[C@H](C(=O)[O-])N3C(=O)C[C@H]3S2(=O)=O)n1 [LF2, AAI101] | > 1 mM | –
CO/N=C(\C(=O)N[C@@H]1C(=O)N2C(C(=O)OCOC(=O)C(C)(C)C)=C(/C=C\c3scnc3C)CS[C@H]12)c1csc(N)n1 [LF3, Cefditoren pivoxil] | > 1 mM | –
CC1(C)S[C@@H]2[C@H](NC(=O)[C@H](NC(=O)N3CCNC3=O)c3ccccc3)C(=O)N2[C@H]1C(=O)O [LF4, Azlocillin sodium] | > 1 mM | –
CCOc1ccc2ccccc2c1C(=O)N[C@@H]1C(=O)N2[C@@H]1SC(C)(C)[C@@H]2C(=O)O [LF5, nafcillin sodium] | > 1 mM | –
O=C(O)C1=C(CSc2nnnn2CS(=O)(=O)O)CS[C@@H]2[C@H](NC(=O)[C@H](O)c3ccccc3)C(=O)N12 [LF9, Cefonicid sodium] | > 1 mM | –
CO/N=C(\C(=O)N[C@@H]1C(=O)N2C(C(=O)OC(C)OC(C)=O)=C(COC(N)=O)CS[C@H]12)c1ccco1 (stereo partly shown) [LF10, Cepazine] | > 1 mM | –
CO/N=C(\C(=O)N[C@@H]1C(=O)N2C(C(=O)O)=C(COC(N)=O)CS[C@H]12)c1ccco1 [LF11, Cefuroxime sodium] | 0.111 mM | –
CO/N=C(\C(=O)N[C@@H]1C(=O)N2C(C(=O)O)=C(CSC(=O)c3ccco3)CS[C@H]12)c1csc(N)n1 [LG1, Sodium ceftiofur] | > 1 mM | –
CO/N=C(\C(=O)N[C@@H]1C(=O)N2C(C(=O)O)=C(CSc3nc(=O)c(=O)[nH]n3C)CS[C@H]12)c1csc(N)n1 [LG2, Ceftriaxone sodium] | > 1 mM | –
CCN1CCN(C(=O)N[C@@H](C(=O)N[C@@H]2C(=O)N3[C@@H]2SC(C)(C)[C@@H]3C(=O)O)c2ccccc2)C(=O)C1=O [LG3, Piperacillin sodium salt] | > 1 mM | –
CO/N=C(\C(=O)N[C@@H]1C(=O)N2C(C(=O)O)=C(CSc3nnnn3C)CS[C@H]12)c1csc(N)n1 [LG4, Cefmenoxime hydrochloride] | > 1 mM | –
